Measurements as given in patent publication US8865728B2, “Combinations comprising methotrexate and DHODH inhibitors” (Almirall, S.A., priority 2008, dated 2014).
pIC50: −log10 of the molar value. Entries after “also recorded” stand apart in the source; their conditions may differ.

How the values were obtained:
[1] = Acute hepatotoxicity assay in Swiss mice (plasma liver markers); type: in vivo; details: for ALT plasma level / AST plasma level / BIL (total bilirubin) plasma level: Swiss mice, single 100 mg/kg intraperitoneal, 24 h after administration
Method: Acute hepatotoxicity assays were performed in Swiss mice. Animals received a single administration of either vehicle, or 100 mg/kg of teriflunomide or a compound of the present invention (compounds from the list indicated previously) by intraperitoneal route. Twenty-four hours later, animals were sacrificed and the levels of liver markers AST(aspartate aminotransferase), ALT(alanine aminotransferase) and BIL(total bilirubin) in plasma were determined.

[2] = tested on: rat adjuvant-induced arthritis model (AIA); experiment: Efficacy in rat adjuvant-induced arthritis model (AIA), curative protocol; type: in vivo, Wistar rats; details: arthritic rats, oral once a day, MTX 0.05 mg/Kg/day, AUC of right paw volumes days 10-21 vs vehicle; for % AUC inhibition right paw: Teriflunomide 3 mg/Kg/day, one experiment with 6 animals
Method: The effect of DHODH inhibitor compounds were tested in combination with methotrexate (0.05 mg/Kg/day) in the rat adjuvant-induced arthritis model (AIA) in animals with established disease (curative protocol). Briefly, Complete Freund Adjuvant (CFA) was injected into the left hind footpad of Wistar rats, and 10 days later the swelling of the two rear paws was measured with a plethysmometer. […] Compounds were administered orally once a day for 10 days and paw volumes were determined every two days up to day 21.

human DHODH = human DHODH (Homo sapiens, UniProt Q02127); experiment: Inhibition of human DHODH activity assay (DCIP chromogen reduction); type: biochemical; details: chromogen reduction assay with DCIP, human enzyme extract; read-out: hDHODH IC50
Sequence of human DHODH (Q02127 whole entry): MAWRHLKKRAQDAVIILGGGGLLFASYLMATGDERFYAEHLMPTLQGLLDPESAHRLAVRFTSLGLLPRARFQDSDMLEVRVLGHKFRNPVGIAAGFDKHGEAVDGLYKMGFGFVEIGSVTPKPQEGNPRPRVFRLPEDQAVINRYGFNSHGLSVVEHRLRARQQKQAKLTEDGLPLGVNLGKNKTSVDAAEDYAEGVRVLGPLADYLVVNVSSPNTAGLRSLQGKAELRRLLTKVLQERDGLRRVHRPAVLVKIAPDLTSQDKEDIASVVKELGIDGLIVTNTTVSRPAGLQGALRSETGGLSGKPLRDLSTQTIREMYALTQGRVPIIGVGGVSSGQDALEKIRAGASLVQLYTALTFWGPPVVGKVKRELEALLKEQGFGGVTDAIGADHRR
Method: DHODH activity and its inhibition were studied using a chromogen reduction assay with DCIP (2,6-dichlorophenol-indophenol).
Enzyme extracts (8 μl, ˜1.5 μg of human protein) were incubated in 96-well plates. The assay mixture (200 μl) contained 200 μM CoQD, 100 μM L-DHO, 120 μM DCIP in the assay buffer (100 mM HEPES pH 8.0, 150 mM NaCl, 10% Glicerol, 0.05% Triton X-100) and 2 μl of test compound.
The reaction was initiated by adding the enzyme and then incubated for 10 min at room temperature before measuring DCIP reduction by counting a decrease in absorbance at 600 nm using standard instrumentation (Spectramax).
All reactions were carried out in duplicate and graphs, determining IC50 values for each compound, were plotted using the ABase software.

| pIC50 (human DHODH) | Structure (SMILES) | ALT plasma level [1] | AST plasma level [1] | BIL (total bilirubin) plasma level [1] | % AUC inhibition right paw [2] | % inhibition of the inflammation (AUC) Right paw ([2]; compound A 3 mg/Kg/day, mean of two independent experiments) | change in plasma liver markers (ALT, AST, BIL) compared to vehicle-treated mice ([1]; mice, intraperitoneal route, 100 mg/kg) |
| --- | --- | --- | --- | --- | --- | --- | --- |
|  | CCOc1cccc(-c2cc(F)c(Nc3ncccc3C(=O)O)c(F)c2)c1 [Compound 19, 2-(3′-Ethoxy-3,5-difluorobiphenyl-4-ylamino)nicotinic acid] | 60 IU/l | 92 IU/l | 0.05 mg/dL |  |  |  |
|  | COc1cccc(-c2ccc(Nc3ncccc3C(=O)O)c(F)c2)c1 [Compound 1, 2-(3-Fluoro-3′-methoxybiphenyl-4-ylamino)nicotinic acid] | 99 IU/l | 84 IU/l | 0.03 mg/dL |  |  |  |
|  | COc1cccc(-c2cc(F)c(Nc3ncccc3C(=O)O)c(F)c2)c1 [Compound 20, 2-(3,5-Difluoro-3′-methoxybiphenyl-4-ylamino)nicotinic acid] | 73 IU/l | 95 IU/l | 0 mg/dL |  |  |  |
|  | COc1cccc(-c2ccc(Nc3cnccc3C(=O)[O-])c(OC(F)(F)F)c2)c1.[Li+] [Compound 23, Lithium 3-(3′-methoxy-3-(trifluoromethoxy)biphenyl-4-ylamino)isonicotinate] | 35 IU/l | 72 IU/l | 0 mg/dL |  |  |  |
|  | CCOc1cccc(-c2ccc(Nc3ncccc3C(=O)O)c(F)c2)c1 [Compound 2, 2-(3′-Ethoxy-3-fluorobiphenyl-4-ylamino)nicotinic acid] | 35 IU/l | 57 IU/l | 0 mg/dL |  |  |  |
|  | Cc1c(-c2ccccc2Cl)cc(F)c(Nc2ncccc2C(=O)O)c1F [Compound 57, 2-(2′-chloro-3,5-difluoro-2-methylbiphenyl-4-ylamino)nicotinic acid] | 60 IU/l | 109 IU/l | 0.06 mg/dL |  |  |  |
|  | CCOc1cccc(-c2ccc(Nc3ncccc3C(=O)O)c(OC(F)(F)F)c2)c1 [Compound 4, 2-(3′-Ethoxy-3-(trifluoromethoxy)biphenyl-4-ylamino)nicotinic acid] | 70 IU/l | 108 IU/l | 0.05 mg/dL |  |  |  |
|  | O=C(O)c1cccnc1Nc1ccc(-c2cccc(OC(F)(F)F)c2)cc1F [Compound 3, 2-(3-Fluoro-3′-(trifluoromethoxy)biphenyl-4-ylamino)nicotinic acid] | 52 IU/l | 83 IU/l | 0.01 mg/dL |  |  |  |
|  | Cc1c(-c2ccccc2)cc(F)c(Nc2ncccc2C(=O)O)c1F [Compound 48, 2-(3,5-difluoro-2-methylbiphenyl-4-ylamino)nicotinic acid] | 44 IU/l | 95 IU/l | 0.08 mg/dL |  |  |  |
|  | CN(Cc1cnc2nc(N)nc(N)c2n1)c1ccc(C(=O)N[C@@H](CCC(=O)O)C(=O)O)cc1 [MTX, Methotrexate] |  |  |  | 24% | 37% |  |
|  | C/C(O)=C(\C#N)C(=O)Nc1ccc(C(F)(F)F)cc1 [Teriflunomide, reference compound] | 423 IU/l | 542 IU/l | 0.5 mg/dL | 56% |  | dramatic increase in the three liver markers; also recorded: drastic increase in the levels of transaminases and bilirrubin in plasma |
| 7.92 | COc1cccc(-c2cc(F)c(Nc3ncc(C)cc3C(=O)O)c(F)c2)c1 [Compound 35, 2-(3,5-Difluoro-3′-methoxybiphenyl-4-ylamino)-5-methylnicotinic acid] |  |  |  |  |  |  |
|  | O=C(O)c1cccnc1Nc1c(F)cc(-c2cccc(OC3CC3)c2)cc1F [Compound 47, 2-(3′-cyclopropoxy-3,5-difluorobiphenyl-4-ylamino)nicotinic acid] | 66 IU/l | 91 IU/l | 0.14 mg/dL |  |  |  |
